Laboratory results from paper PMC13589290, “Plasmodium falciparum HSP90 inhibitors show divergent resistance despite a shared ATP-binding site” (Cell reports, 2026).

Experiments:
[1] = biological target: T1, HSC82 (Saccharomyces cerevisiae, UniProt P15108, A41S); test: fluorescence polarization competition with GA-FITC on purified protein; assay type: binding
T1 construct: N-terminal domain, C-terminal hexahistidine tag

[2] = biological target: T2, HSC82 (Saccharomyces cerevisiae, UniProt P15108); test: as above; assay type: binding
T2 construct: N-terminal domain, C-terminal hexahistidine tag

SMILES: CCNC(=O)c1noc(-c2cc(C(C)C)c(O)cc2O)c1-c1ccc(CN2CCOCC2)cc1 [AUY-922]
- fluorescence polarization competition with GA-FITC on purified protein [1]: A41S reduced AUY-922 binding affinity in yeast HSC82, as evidenced by a rightward shift in the competition curve
- fluorescence polarization competition with GA-FITC on purified protein [2]: A41S reduced AUY-922 binding affinity in yeast HSC82, as evidenced by a rightward shift in the competition curve

SMILES: COC1=C2C[C@@H](C)C[C@H](OC)[C@H](O)[C@@H](C)/C=C(\C)[C@H](OC(N)=O)[C@@H](OC)/C=C\C=C(/C)C(=O)NC(=CC1=O)C2=O [Geldanamycin]
- fluorescence polarization competition with GA-FITC on purified protein [1]: GA binding was unaffected by the A41S substitution in yeast HSC82
- fluorescence polarization competition with GA-FITC on purified protein [2]: GA binding was unaffected by the A41S substitution in yeast HSC82
